From article PMC9962512, “Synthesis and Anti-Angiogenic Activity of Novel c(RGDyK) Peptide-Based JH-VII-139-1 Conjugates” (Pharmaceutics, 2023)
Where two headings read alike, the source gives them in different places.

How the values were obtained:
[1] = MTT assay, summary over the cell panel; type: cell-based
Protocol: (§1) HeLa, MCF7, MDA-MB-231 and K562 cancer cell lines were provided by ATCC (American Type Culture Collection). Cells were incubated at 37 °C with 5% CO2. HeLa, MCF7 and MDA-MB-231 cells were maintained in DMEM, while K562 cells were maintained in RPMI medium, both supplemented with 10% (v/v) fetal bovine serum (FBS) and antibiotics/antimycotics.
(§2) HeLa, MCF7, MDA-MB-231 and K562 cells were seeded in 96-well plates (3 × 10^3 cells per well) and grown in medium supplemented with 10% FBS as monolayers at 37 °C in a 5% CO2 incubator. One day after seeding, cells were exposed to increasing concentrations of the inhibitors for 48 h. The viability of the cells was estimated by an (3-(4,5-imethylthiazol-2-yl)-2,5-diphenyltetrazolium bromide (MTT) metabolic assay as described previously, and the percentage growth inhibition (GI50, TGI, IC50) was calculated according to National Cancer Institute recommendations as referred to Leonidis et al.. Values shown represent the means ± SE of three independent experiments.

[2] = Stability in human plasma; type: in vitro ADME; settings: for half-life at 495 µg/mL: human, read-out: half-life t1/2
Protocol: First, 250 μg of (JH-VII-139-1)-c(RGDyK)-based conjugates were diluted in 5 μL DMSO and the mixture was added to 0.5 mL of human plasma. The mixtures were incubated at 37 °C. 50 μL of aliquot was removed at predetermined time points and quenched with 150 μL ice-cold acetonitrile (+0.1% formic acid). Then, the mixture was centrifuged at 10,000 rpm for 10 min. Then, 50 μL of supernatant was added to 50 μL of ultrapure water (+0.1% formic acid) and analyzed by LC-MS. Results are presented as the mean ± SD of three independent experiments.

[3] = buffer, pH 7.4
Protocol: (§3) The mixture was then incubated at 37 °C, samples were collected at predetermined time points (0, 1, 2, 3, 4, 5, 24 and 48 h), and analyzed by LC-MS. Results are presented as the mean ± of SD after repeating the experiment three times.

[4] = target: T1, human SRPK1 (Homo sapiens, UniProt Q96SB4); assay: In vitro kinase assay (GST-SRPK1, GST-LBRNt(62-92) substrate, radioactive); type: biochemical; settings: 25 μM ATP; mean ± SD of three experiments; read-out: IC50 (nΜ) for SRPK1
T1 construct: made in house; host or cells: bacteria (pGEX-2T vector)
Protocol: The pGEX-2T bacterial expression vector (Amersham Biosciences GmbH, Freiburg, Germany) was used to construct plasmids that encode human SRPK1 and a fragment of the N-terminal domain of turkey LBR comprising amino acids 62–92 (LBRNt(62–92)). The GST-fusion proteins were produced in bacteria and purified using glutathione-Sepharose (Amersham Biosciences) according to the manufacturer’s instructions. Kinase assays were carried out in a total volume of 25 μL containing 0.5 μg GST-SRPK1, 1.5 μg GST-LBRNt(62–92) as substrate, 12 mM Hepes pH 7.5, 10 mM MgCl2, 25 μM ATP, and increasing concentrations of the inhibitors as indicated. In all assays, the final concentration of dimethyl sulfoxide (DMSO) was adjusted to 4%. Phosphorylated GST-LBRNt(62–92) was detected by autoradiography using Super RX (Fuji medical X-ray film,(Fujifilm Holdings Corporation, Tokyo, Japan)). Incorporated radioactivity was quantified by excising the radioactive bands from the SDS-PAGE gel and scintillation counting.

[5] = system: MDA-MB-231 cells; assay: cells; type: cell-based; settings: for TGI: total growth inhibition
Protocol: as §1, §2

[6] = system: K562 cells; assay: cells; type: cell-based; settings: for TGI: total growth inhibition
Protocol: as §1, §2

[7] = system: MCF7 cells; assay: cells; type: cell-based; settings: for TGI: total growth inhibition
Protocol: as §1, §2

[8] = system: HeLa cells; assay: cells; type: cell-based; settings: 48 h; for TGI: total growth inhibition
Protocol: as §1, §2

[9] = Stability in Dulbecco's Modified Eagle Medium (+10% FBS); type: in vitro ADME; settings: for half-life at 396 µg/mL: DMEM + 10% FBS, read-out: half-life t1/2
Protocol: Conjugates geo75, geo77, geo85 and geo107 (200 μg in 5 μL DMSO) were diluted in 0.5 mL DMEM (+10% fetal bovine serum) mixture and incubated at 37 °C. At predetermined time intervals, 50 μL of the mixture was removed and quenched with 150 μL water/acetonitrile/formic acid solution (100/100/0.1 volume ratio) and the sample was analyzed by LC-MS. Three independent experiments were carried out and the results are presented as the mean ± standard deviation.

[10] = physchem; settings: buffer, pH 5.2
Protocol: as §3

[11] = physchem; settings: buffer, pH 7.4
Protocol: as §3

[12] = system: α5β1 integrins; parameters: method as in PMID 28074920; settings: α5β1 ref 25; cited from earlier work
[13] = system: zebrafish Tg(kdrl:gfp) embryos; assay: Zebrafish angiogenesis assay, intersegmental vessels (ISVs); type: in vivo; settings: 10 μM, added 24 hpf, imaged 72 hpf
Protocol: The Tg(kdrl:gfp)^s843 [38] was used to measure angiogenesis. Zebrafish breeding was carried out according to the European Directive 2010/63 and the Recommended Guidelines for Zebrafish Husbandry Conditions.
Zebrafish Tg(kdrl:gfp)^s843 embryos were raised in E3 medium up to 24 hpf; then dechorinated and finally transferred to a 12-well plate (10 embryos per well). Each compound was dissolved in DMSO and then added in the wells at the following final concentrations: 10 μM JH-VII-139-1 and c(RGDyK), and 1.3 μM geo75, geo77, geo85, geo107. Treated embryos and control embryos (at the corresponding DMSO concentration) were kept at 28 °C and imaged at 72 hpf.
After anesthetizing embryos with 0.4% tricaine methanesulfonate (MS222), a fluorescent image was acquired using a Hamamatsu ORCA-Flash4.0LT digital camera. We used the total length of 8 intersegmental vessels (ISVs) per embryo and the width from each of the above ISVs was measured at three different points, i.e., the top, the middle, and the bottom point of each ISV, and then the average width was estimated. We measured the 8 ISVs that flank the end of the yolk extension. Length and widths were measured using the open-source software ImageJ 1.53a (http://imagej.nih.gov/ij (accessed on 30 May 2022)). A total of 30 embryos (4–7 per group) from independent experiments were measured. […]

[14] = system: SRPK1; parameters: method as in PMID 29478907; settings: SRPK1 ref 27; cited from earlier work
[15] = system: HeLa, MCF-7, MDA-MB-231 and K562 cancer cells; assay: MTT assay, summary over the cell panel; type: cell-based; settings: HeLa, MCF-7, MDA-MB-231 and K562; 48 h; read-out: GI50 (cytostatic effect), range over compounds and cell lines
Protocol: as §1, §2

[16] = system: angiogenesis in AMD animal model; parameters: method as in PMID 29478907; settings: AMD animal model ref 27; cited from earlier work
[17] = DMEM with 10% fetal bovine serum, 37 °C

T1 sequence (Q96SB4 whole entry): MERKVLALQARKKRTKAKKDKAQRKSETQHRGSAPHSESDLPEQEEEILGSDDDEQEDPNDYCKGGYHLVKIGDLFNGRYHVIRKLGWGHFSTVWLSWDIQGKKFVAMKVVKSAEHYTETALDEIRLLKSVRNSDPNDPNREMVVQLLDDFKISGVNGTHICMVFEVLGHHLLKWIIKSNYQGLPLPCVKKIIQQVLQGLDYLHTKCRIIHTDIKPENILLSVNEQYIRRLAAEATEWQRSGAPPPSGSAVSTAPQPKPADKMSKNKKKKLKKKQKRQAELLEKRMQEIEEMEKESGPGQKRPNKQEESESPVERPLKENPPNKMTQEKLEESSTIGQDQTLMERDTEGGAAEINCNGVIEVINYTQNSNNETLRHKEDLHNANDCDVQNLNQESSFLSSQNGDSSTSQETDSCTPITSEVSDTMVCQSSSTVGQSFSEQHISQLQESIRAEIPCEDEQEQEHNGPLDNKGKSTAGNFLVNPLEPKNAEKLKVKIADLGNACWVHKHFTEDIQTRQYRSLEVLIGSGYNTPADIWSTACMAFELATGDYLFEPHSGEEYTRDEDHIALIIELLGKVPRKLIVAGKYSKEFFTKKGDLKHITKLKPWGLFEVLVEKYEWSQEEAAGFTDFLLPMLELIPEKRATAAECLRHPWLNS

## CCc1cc2c(cc1-c1ccn(C(=O)CCCC(=O)NCCCC[C@@H]3NC(=O)[C@@H](Cc4ccc(O)cc4)NC(=O)[C@H](CC(=O)O)NC(=O)CNC(=O)[C@H](CCCNC(=N)N)NC3=O)n1)C(C)(C)c1[nH]c3cc(C#N)ccc3c1C2=O [geo77]
[1]
  IC50: 3 to 18 µM
[2]; 37 °C
  half-life at 495 µg/mL: 0.167 to 0.833 h
[3]
  half-life t1/2: 1 h 44 min h min
[4]
  IC50: 0.03 ± 0.0017 µM
[5]; 48 h
  GI50: 8 ± 0.5 µM
  IC50: 10 ± 0.3 µM
[6]; 48 h
  GI50: 12 ± 0.9 µM
  IC50: 17 ± 0.5 µM
[7]; 48 h
  GI50: 4 ± 0.4 µM
  IC50: 3 ± 0.4 µM
[8]
  GI50: 5 ± 0.2 µM
  IC50: 9 ± 0.2 µM

## CCc1cc2c(cc1-c1ccn(C(=O)OCCOCCOCCOC(=O)NCCCC[C@@H]3NC(=O)[C@@H](Cc4ccc(O)cc4)NC(=O)[C@H](CC(=O)O)NC(=O)CNC(=O)[C@H](CCCNC(=N)N)NC3=O)n1)C(C)(C)c1[nH]c3cc(C#N)ccc3c1C2=O [geo75]
[1]
  IC50: 3 to 18 µM
[2]; 37 °C
  time after which almost completely hydrolyzed: 1 h
  half-life at 495 µg/mL: 0.183 h
[3]
  half-life t1/2: 24h 15min h min
[9]; DMEM, 37 °C
  time after which almost completely hydrolyzed: 9 h
[4]
  IC50: 0.035 ± 0.0011 µM
[10]
  half-life: > 48 h

## CCc1cc2c(cc1-c1ccn(C(=O)NCCOCCOCCNC(=O)NCCCC[C@@H]3NC(=O)[C@@H](Cc4ccc(O)cc4)NC(=O)[C@H](CC(=O)O)NC(=O)CNC(=O)[C@H](CCCNC(=N)N)NC3=O)n1)C(C)(C)c1[nH]c3cc(C#N)ccc3c1C2=O [geo85]
[2]; after 24 h, read-out: hydrolysis
  metabolised at 24 h, 495 µg/mL: 10%
[2]; 37 °C
  half-life at 495 µg/mL: > 48 h
[9]; [17]
  half-life at 396 µg/mL: > 48 h
[9]; DMEM, after 24 h
  hydrolysis: 10%
[4]
  IC50: 0.042 ± 0.0019 µM
[11]
  half-life: > 48 h
[10]
  half-life: > 48 h
[5]; 48 h
  GI50: > 100 µM
  IC50: > 100 µM
[6]; 48 h
  GI50: > 100 µM
  IC50: > 100 µM
[8]
  GI50: > 100 µM
  IC50: > 100 µM

## N=C(N)NCCC[C@@H]1NC(=O)[C@H](CCCCN)NC(=O)[C@@H](Cc2ccc(O)cc2)NC(=O)[C@H](CC(=O)O)NC(=O)CNC1=O [c(RGDyK)]
[12]
  IC50: 0.236 ± 0.045 µM
[5]; 48 h
  GI50: […]
  IC50: […]
[5]; MDA-MB-231, 48 h
  TGI: […]
[6]; 48 h
  GI50: […]
  IC50: […]
[6]; K562, 48 h
  TGI: […]
[7]; 48 h
  GI50: […]
  IC50: […]
[7]; MCF7, 48 h
  TGI: […]
[8]
  GI50: 79 ± 2.2 µM
[8]; HeLa
  TGI: […]
[13]
  inhibition of total width of ISVs: non-significant trend

## CCc1cc2c(cc1-c1cc[nH]n1)C(C)(C)c1[nH]c3cc(C#N)ccc3c1C2=O [JH-VII-139-1, 9-Ethyl-6,6-dimethyl-11-oxo-8-(1H-pyrazol-3-yl)-6,11-dihydro-5H-benzo[b]carbazole-3-carbonitrile]
[14]
  IC50: 0.0011 µM
[15]
  GI50: 4 to 12 µM
[1]; human, MDA-MB-231 and K562 cancer cells, HeLa, MCF-7, MDA-MB-231 and K562, 48 h, read-out: IC50 (cytotoxic effect), range over compounds and cell lines
  IC50 at 48 h: 3 to 18 µM
[2]; plasma, 37 °C
  half-life at 495 µg/mL: > 48 h
[9]; bovine, DMEM with 10% fetal bovine serum (cell-free), 37 °C
  half-life at 396 µg/mL: > 48 h
[4]
  IC50: 0.032 ± 0.0005 µM
[16]
  effect on angiogenesis: blocks angiogenesis
[5]; Homo sapiens, MDA-MB-231, 48 h, 50% growth inhibition, read-out: GI50
  GI50: 11 ± 0.3 µM
[5]; Homo sapiens, MDA-MB-231, 48 h, cytotoxic effect, read-out: IC50
  IC50: 18 ± 0.5 µM
[5]; MDA-MB-231, 48 h
  TGI: 21 ± 0.4 μΜ
[6]; Homo sapiens, K562, 48 h, 50% growth inhibition, read-out: GI50
  GI50: 8 ± 0.5 µM
[6]; Homo sapiens, K562, 48 h, cytotoxic effect, read-out: IC50
  IC50: 13 ± 0.3 µM
[6]; K562, 48 h
  TGI: 15 ± 0.5 μΜ
[7]; Homo sapiens, MCF7, 48 h, 50% growth inhibition, read-out: GI50
  GI50: 9 ± 0.2 µM
[7]; Homo sapiens, MCF7, 48 h, cytotoxic effect, read-out: IC50
  IC50: 8 ± 0.6 µM
[7]; MCF7, 48 h
  TGI: 19 ± 0.3 μΜ
[8]; HeLa
  TGI: 19 ± 0.2 μΜ
[8]; Homo sapiens, HeLa, 50% growth inhibition, read-out: GI50
  GI50: 8 ± 0.2 µM
[8]; Homo sapiens, HeLa, cytotoxic effect, read-out: IC50
  IC50: 14 ± 0.8 µM
[13]
  inhibition of total width of ISVs: non-significant trend

## CCc1cc2c(cc1-c1ccn(C(=O)NCCOCCOCCNC(=O)N[C@@H](CCCCN)C(=O)NCCCC[C@@H]3NC(=O)[C@@H](Cc4ccc(O)cc4)NC(=O)[C@H](CC(=O)O)NC(=O)CNC(=O)[C@H](CCCNC(=N)N)NC3=O)n1)C(C)(C)c1[nH]c3cc(C#N)ccc3c1C2=O [geo107]
[2]; 37 °C
  half-life at 495 µg/mL: > 48 h
[2]; up to 48 h
  residual concentration (of initial concentration), lowest: ≥ 80%
[9]; [17]
  half-life at 396 µg/mL: > 48 h
[9]; cell media (DMEM), up to 48 h
  residual concentration (of initial concentration), lowest: ≥ 80%
[11]
  half-life: > 48 h
[10]
  half-life: > 48 h
